Tests used:
chicken myosin-5a = chicken myosin-5a (Gallus gallus, UniProt Q02440); test: In vitro motility assay (actin filament sliding), myosin-5a; format: biochemical; conditions: 10 μM PBP
Experimental: (b) Inhibition of chicken myosin-5a by PBP in the in vitro motility assay. The histograms show the average sliding velocity of Rh/Ph-labeled actin filaments in the absence and presence of 10 μM PBP. Myosin-5a moves actin filaments with an average velocity of 0.6 μm/s±0.05 (dark bars); addition of 10 μM PBP into the same flow cell decreases the average sliding velocity to 0.013 μm/s±0.002 (light grey bars).
The extent and order of isoform-specific differences in the potency of the inhibitor were additionally confirmed by the results of in vitro motility assays). […] (FIG. 11a) Myosin-5a moves actin filaments with an average velocity of 0.6 μm/s±0.05 (dark bars); addition of 10 μM PBP into the same flow cell lead to a 46-fold reduction of the average sliding velocity to 0.013 μm/s±0.002 (light grey bars).
Direct functional Assays. Actin-sliding motility was performed at 25° C. using an Olympus IX81 inverted fluorescence microscope. Experimental flow cells were constructed using bovine serum albumin (0.5 mg/ml in assay buffer)-coated glass slides and nitrocellulose-coated coverslips. Myosins were actin affinity-purified immediately before use, to remove rigor heads^20. […] Average sliding velocity was determined from the Gaussian distribution of automatically tracked actin filaments using DiaTrack 3.0 and Origin 7.0.

[1] = tested on: heavy meromyosin (HMM) prepared from rabbit skeletal muscle myosin-2; test: Inhibitor screening: colorimetric high-throughput myosin ATPase assay with HMM; format: biochemical
Description: Preferably, said activity is the capability of said myosin (i) to bind actin; (ii) to convert ATP into ADP and Pi; and/or (iii) to generate force and/or movement. Exemplary or preferred binding assays are described herein above and can be applied for determining whether myosin binds actin, preferably F-actin, and/or nucleotides. Exemplary or preferred activity assays are described herein below and can be applied for determining whether myosin is capable of converting ATP into ADP and Pi or of force production and generation of movement. An exemplary assay for ATPase activity is based on the detection of free phosphate formed upon cleavage of ATP, wherein the detection is effected using malachite green. For an exemplary workflow, see FIG. 17.
FIG. 6: Histogram showing the relative myosin-2 ATPase activity measured in the absence (+control) and presence of halogenated alkaloids. Blebbistatin und BTS were used as controls. Compounds of the HET-series, BTS and blebbistatin were used at 25 μM final concentration. HET-43 is PBP (pentabromopseudilin). […]
Inhibitor screening. […] The amount of dye formed after 20 min color development at room temperature was determined with a Tecan Infinite™ microplate reader (Cralisheim, Germany).

Chain of chicken myosin-5a (Q02440 1-764): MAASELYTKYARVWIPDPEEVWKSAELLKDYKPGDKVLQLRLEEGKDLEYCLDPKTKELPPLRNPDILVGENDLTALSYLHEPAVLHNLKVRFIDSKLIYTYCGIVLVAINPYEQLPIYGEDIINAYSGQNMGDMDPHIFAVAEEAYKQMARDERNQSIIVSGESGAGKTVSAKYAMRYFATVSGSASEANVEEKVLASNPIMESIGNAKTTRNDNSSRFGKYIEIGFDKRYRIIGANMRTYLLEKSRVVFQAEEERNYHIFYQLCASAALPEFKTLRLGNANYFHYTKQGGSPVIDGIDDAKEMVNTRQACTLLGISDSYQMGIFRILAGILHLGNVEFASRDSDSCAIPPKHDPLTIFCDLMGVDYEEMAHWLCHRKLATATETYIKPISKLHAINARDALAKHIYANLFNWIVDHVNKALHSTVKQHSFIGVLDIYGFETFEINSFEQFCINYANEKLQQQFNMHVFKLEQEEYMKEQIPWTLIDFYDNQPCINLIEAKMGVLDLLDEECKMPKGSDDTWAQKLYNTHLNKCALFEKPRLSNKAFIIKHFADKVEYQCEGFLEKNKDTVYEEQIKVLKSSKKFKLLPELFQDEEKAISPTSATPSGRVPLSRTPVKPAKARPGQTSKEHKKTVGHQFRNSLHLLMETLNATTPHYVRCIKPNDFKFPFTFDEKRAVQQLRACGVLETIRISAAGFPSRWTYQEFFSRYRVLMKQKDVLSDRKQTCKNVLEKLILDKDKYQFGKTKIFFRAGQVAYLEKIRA

**Q.** For Oc1c(Br)cc(Br)cc1-c1[nH]c(Br)c(Br)c1Br [KIN-43], which “fold reduction of the average sliding velocity” value (chicken myosin-5a) is on record?
**A.** 46 fold

**Q.** And the “average sliding velocity of actin filaments” value (chicken myosin-5a; 0.6 μm/s without)?
**A.** 0.013 μm/s

**Q.** What about the “inhibition of HMM ATPase activity” value [1] of the same molecule?
**A.** very potent inhibitor

— patent US20110105554A1, “MEANS FOR TREATING MYOSIN-RELATED DISEASES” (KINARIS BIOMEDICALS GMBH, priority 2007, published 2011)
